Results as given in ChEMBL document CHEMBL1201862, “PubChem BioAssay data set” (2004).
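These data come from cells grown in 96-well plates and exposed to compound for 48 hours at five concentrations. GI50 marks 50% less growth.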 The source made the active and inactive calls. No stated cut-off is given here; in the data, active = GI50 up to about 1.1 µM and inactive = higher.

Columns and labels:
Assay in all cases: inhibition of tumour cell growth, NCI panel, 48 h
TK-10 = tested on: TK-10
M14 = tested on: M14
MOLT-4 = tested on: MOLT-4
ACHN = tested on: ACHN
U-251 = tested on: U-251
RXF 393 = tested on: RXF 393
UACC-62 = tested on: UACC-62
786-0 = tested on: 786-0
NCI-H460 = tested on: NCI-H460
K562 = tested on: K562
SW-620 = tested on: SW-620
SK-MEL-2 = tested on: SK-MEL-2
SF-268 = tested on: SF-268
SK-MEL-5 = tested on: SK-MEL-5
KM12 = tested on: KM12
A498 = tested on: A498
DU-145 = tested on: DU-145
PC-3 = tested on: PC-3
MCF7 = tested on: MCF7
MDA-MB-435 = tested on: MDA-MB-435

Structure (SMILES) | GI50 (TK-10) | GI50 (M14) | GI50 (MOLT-4) | GI50 (ACHN) | GI50 (U-251) | GI50 (RXF 393) | GI50 (UACC-62) | GI50 (786-0) | GI50 (NCI-H460) | GI50 (K562) | GI50 (SW-620) | GI50 (SK-MEL-2) | GI50 (SF-268) | GI50 (SK-MEL-5) | GI50 (KM12) | GI50 (A498) | GI50 (DU-145) | GI50 (PC-3) | GI50 (MCF7) | GI50 (MDA-MB-435)
Cc1nc2c(o1)/C(=N\c1ccccc1)c1ccccc1C2=O | 35.1 µM (inactive) | 9.64 µM (inactive) | 18 µM (inactive) | 7.16 µM (inactive) | 3.61 µM (inactive) | 20.2 µM (inactive) | 3.37 µM (inactive) | 15.2 µM (inactive) | 12.6 µM (inactive) | 5.7 µM (inactive) | 10.7 µM (inactive) | 4.86 µM (inactive) | 7.83 µM (inactive) | 2.56 µM (inactive) | 15.1 µM (inactive) | 34.1 µM (inactive) | – | – | – | –
NP1(Oc2ccc(F)cc2)=NP(N)(Oc2ccc(F)cc2)=NP(Oc2ccc(F)cc2)(Oc2ccc(F)cc2)=N1 (stereo not drawn) | 2.77 µM (inactive) | 6.9 µM (inactive) | 3.37 µM (inactive) | 3.32 µM (inactive) | 4.78 µM (inactive) | – | – | 11 µM (inactive) | 3.7 µM (inactive) | – | 12.4 µM (inactive) | – | 13.8 µM (inactive) | 4.91 µM (inactive) | 4.19 µM (inactive) | < 0.01 µM (active) | 7.52 µM (inactive) | 4.85 µM (inactive) | 2.94 µM (inactive) | 7.01 µM (inactive)
C(/C=N/N=C1NCCCN1)=N\N=C1NCCCN1 | > 10 µM (inactive) | > 100 µM (inactive) | > 100 µM (inactive) | > 100 µM (inactive) | > 100 µM (inactive) | – | > 100 µM (inactive) | > 100 µM (inactive) | > 100 µM (inactive) | > 100 µM (inactive) | > 100 µM (inactive) | – | > 100 µM (inactive) | > 100 µM (inactive) | > 100 µM (inactive) | – | – | > 100 µM (inactive) | > 100 µM (inactive) | > 100 µM (inactive)
COc1ccccc1N1C(=O)/C(=C\c2ccccc2)SC1c1cc(OC)c(OC)c(OC)c1 (stereo not drawn) | > 100 µM (inactive) | 35.1 µM (inactive) | 35 µM (inactive) | 74.1 µM (inactive) | 27.1 µM (inactive) | – | 30.2 µM (inactive) | 32.2 µM (inactive) | – | 41.7 µM (inactive) | – | 7.06 µM (inactive) | 48.5 µM (inactive) | 27.6 µM (inactive) | 32.1 µM (inactive) | 55.6 µM (inactive) | – | 21.4 µM (inactive) | 32.3 µM (inactive) | 17.9 µM (inactive)
O=C(/C=C(\O)C(=O)O)/C=C(\O)c1ccc(Cl)cc1 | > 100 µM (inactive) | > 100 µM (inactive) | > 100 µM (inactive) | > 100 µM (inactive) | > 100 µM (inactive) | > 100 µM (inactive) | > 100 µM (inactive) | > 100 µM (inactive) | > 100 µM (inactive) | > 100 µM (inactive) | > 100 µM (inactive) | > 100 µM (inactive) | > 100 µM (inactive) | > 100 µM (inactive) | > 100 µM (inactive) | > 100 µM (inactive) | – | – | – | –
COC(=O)c1cc(C)ccc1/C=C1\Cc2cccc(C)c2C1=O | > 100 µM (inactive) | > 100 µM (inactive) | 9.35 µM (inactive) | 38.7 µM (inactive) | 36.6 µM (inactive) | 61.9 µM (inactive) | – | 50.4 µM (inactive) | > 100 µM (inactive) | 9.02 µM (inactive) | 31.6 µM (inactive) | – | 98.9 µM (inactive) | 7.06 µM (inactive) | 26.7 µM (inactive) | 46.3 µM (inactive) | 65.3 µM (inactive) | 8.04 µM (inactive) | 30.5 µM (inactive) | –
O=P(CN1CCOCC1)(c1ccccc1)c1ccccc1 | > 100 µM (inactive) | > 100 µM (inactive) | > 100 µM (inactive) | > 100 µM (inactive) | > 100 µM (inactive) | > 100 µM (inactive) | > 100 µM (inactive) | > 100 µM (inactive) | > 100 µM (inactive) | > 100 µM (inactive) | > 100 µM (inactive) | > 100 µM (inactive) | > 100 µM (inactive) | > 100 µM (inactive) | > 100 µM (inactive) | > 100 µM (inactive) | – | – | – | –
CCN(CC)C(=O)CNC(=O)OC(C)(C)C | > 100 µM (inactive) | > 100 µM (inactive) | > 100 µM (inactive) | > 100 µM (inactive) | > 100 µM (inactive) | > 100 µM (inactive) | > 100 µM (inactive) | > 100 µM (inactive) | > 100 µM (inactive) | > 100 µM (inactive) | > 100 µM (inactive) | > 100 µM (inactive) | > 100 µM (inactive) | > 100 µM (inactive) | > 100 µM (inactive) | > 100 µM (inactive) | – | – | – | –
O=CN(CCN1CCCC1)C1CCc2cc(Cl)c(Cl)cc2C1 (stereo not drawn) | 16.3 µM (inactive) | 15.9 µM (inactive) | 24.4 µM (inactive) | – | 0.513 µM (active) | 10.9 µM (inactive) | – | 7.55 µM (inactive) | 0.196 µM (active) | 20.9 µM (inactive) | 27.3 µM (inactive) | – | 18.5 µM (inactive) | 27.2 µM (inactive) | 4.5 µM (inactive) | – | 34.7 µM (inactive) | 11.4 µM (inactive) | – | 15 µM (inactive)
CC1=Nc2ccccc2NC(c2ccoc2)C1 (stereo not drawn) | > 100 µM (inactive) | > 100 µM (inactive) | > 100 µM (inactive) | > 100 µM (inactive) | > 100 µM (inactive) | > 100 µM (inactive) | > 100 µM (inactive) | > 100 µM (inactive) | > 100 µM (inactive) | > 100 µM (inactive) | > 100 µM (inactive) | > 100 µM (inactive) | > 100 µM (inactive) | > 100 µM (inactive) | > 100 µM (inactive) | > 100 µM (inactive) | – | – | – | –
SCCCSCCSCCCSCCS | – | 87.9 µM (inactive) | 33.2 µM (inactive) | – | > 100 µM (inactive) | – | > 100 µM (inactive) | > 100 µM (inactive) | > 100 µM (inactive) | 97.9 µM (inactive) | > 100 µM (inactive) | – | > 100 µM (inactive) | 91.6 µM (inactive) | > 100 µM (inactive) | – | > 100 µM (inactive) | 65.8 µM (inactive) | > 100 µM (inactive) | > 100 µM (inactive)
CC(=O)c1cccc(NC(=O)C(=O)Nn2c(N)nnc2N)c1 | > 100 µM (inactive) | > 100 µM (inactive) | > 100 µM (inactive) | > 100 µM (inactive) | > 100 µM (inactive) | > 100 µM (inactive) | > 100 µM (inactive) | > 100 µM (inactive) | > 100 µM (inactive) | > 100 µM (inactive) | > 100 µM (inactive) | > 100 µM (inactive) | > 100 µM (inactive) | > 100 µM (inactive) | > 100 µM (inactive) | > 100 µM (inactive) | – | – | – | –
Cc1cc(N(CCC#N)CCC#N)ccc1/N=N/c1ccc(Br)cc1 | 14.3 µM (inactive) | 9.02 µM (inactive) | 19.3 µM (inactive) | 9.12 µM (inactive) | 19.5 µM (inactive) | 8.13 µM (inactive) | 9.31 µM (inactive) | 13.2 µM (inactive) | > 100 µM (inactive) | 23.8 µM (inactive) | > 48.6 µM (inactive) | 15.1 µM (inactive) | 22.3 µM (inactive) | 12.3 µM (inactive) | > 23.8 µM (inactive) | 13.7 µM (inactive) | – | – | – | –
O=S(=O)(O)c1ccc(/N=N/c2ccc(/N=N/c3c(O)ccc4ccccc34)c(S(=O)(=O)O)c2)cc1 | > 100 µM (inactive) | > 100 µM (inactive) | > 100 µM (inactive) | > 100 µM (inactive) | > 100 µM (inactive) | > 100 µM (inactive) | > 100 µM (inactive) | > 100 µM (inactive) | > 100 µM (inactive) | > 100 µM (inactive) | > 100 µM (inactive) | > 100 µM (inactive) | > 100 µM (inactive) | > 100 µM (inactive) | > 100 µM (inactive) | – | – | > 100 µM (inactive) | > 100 µM (inactive) | > 100 µM (inactive)
CC(C)c1nc2cc(C(F)(F)F)ccc2[nH]c1=O | 70.6 µM (inactive) | > 100 µM (inactive) | 75.3 µM (inactive) | 72.1 µM (inactive) | > 100 µM (inactive) | 49.1 µM (inactive) | 29.8 µM (inactive) | 66.7 µM (inactive) | > 100 µM (inactive) | > 100 µM (inactive) | > 100 µM (inactive) | 62.1 µM (inactive) | 88.5 µM (inactive) | 61.7 µM (inactive) | > 100 µM (inactive) | 61.9 µM (inactive) | – | 77.8 µM (inactive) | 85.9 µM (inactive) | > 100 µM (inactive)
O=C1/C(=C/c2ccccc2)CCCc2ccccc21 | 19.8 µM (inactive) | 20.1 µM (inactive) | 18.5 µM (inactive) | 20.8 µM (inactive) | 15.7 µM (inactive) | – | 15.1 µM (inactive) | 16.4 µM (inactive) | 16 µM (inactive) | 19.2 µM (inactive) | 17.7 µM (inactive) | 16.2 µM (inactive) | 17.7 µM (inactive) | – | 18.1 µM (inactive) | – | 23.2 µM (inactive) | 18.1 µM (inactive) | 17.4 µM (inactive) | 18.3 µM (inactive)
CC[C@H](CC[C@@H](C)[C@H]1CC[C@H]2[C@@H]3CC=C4C[C@@H](O)CC[C@]4(C)[C@H]3CC[C@]12C)C(C)C [BETA-SITOSTEROL] | > 100 µM (inactive) | > 100 µM (inactive) | > 100 µM (inactive) | > 100 µM (inactive) | > 100 µM (inactive) | – | – | > 100 µM (inactive) | > 100 µM (inactive) | > 100 µM (inactive) | > 100 µM (inactive) | > 100 µM (inactive) | > 100 µM (inactive) | > 100 µM (inactive) | > 100 µM (inactive) | – | > 100 µM (inactive) | > 100 µM (inactive) | > 100 µM (inactive) | > 100 µM (inactive)
